Results from PubChem BioAssay (NCI).
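Exposure lasted 48 hours, with cells grown in 96-well plates and compounds tested at five concentrations. Here, GI50 denotes the concentration required for 50% inhibition of growth. At the TGI there is no net growth.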

Columns and labels:
Experiment in all cases: inhibition of tumour cell growth, NCI panel, 48 h
SNB-19 CNS = system: SNB-19 CNS
OVCAR-5 ovarian = system: OVCAR-5 ovarian
SN12C renal = system: SN12C renal
HOP-92 NSCLC = system: HOP-92 NSCLC
CAKI-1 renal = system: CAKI-1 renal
OVCAR-4 ovarian = system: OVCAR-4 ovarian
UACC-257 melanoma = system: UACC-257 melanoma
TK-10 renal = system: TK-10 renal
PC-3 prostate = system: PC-3 prostate
HL-60(TB) leukemia = system: HL-60(TB) leukemia

Compound | TGI (SNB-19 CNS) [µM] | TGI (OVCAR-5 ovarian) [µM] | TGI (SN12C renal) [µM] | TGI (HOP-92 NSCLC) [µM] | TGI (CAKI-1 renal) [µM] | TGI (OVCAR-4 ovarian) [µM] | TGI (UACC-257 melanoma) [µM] | TGI (TK-10 renal) [µM] | TGI (PC-3 prostate) [µM] | TGI (HL-60(TB) leukemia) [µM] | GI50 (SNB-19 CNS) [µM] | GI50 (OVCAR-5 ovarian) [µM] | GI50 (SN12C renal) [µM] | GI50 (HOP-92 NSCLC) [µM] | GI50 (TK-10 renal) [µM] | GI50 (PC-3 prostate) [µM] | GI50 (OVCAR-4 ovarian) [µM] | GI50 (HL-60(TB) leukemia) [µM] | GI50 (UACC-257 melanoma) [µM] | GI50 (CAKI-1 renal) [µM]
COC(=O)C(Cc1nc2ccccc2[nH]c1=O)/C(=N\NC(C)(C)C)C(=O)Nc1c(C)cc(Br)cc1C (stereo not given) | > 100 | > 100 | > 100 | 45.5 | 88.9 | > 100 | > 100 | – | – | – | – | – | – | – | – | – | – | – | – | –
Cc1cc([N+](=O)[O-])ccc1NC(=O)C(=O)C(C(=O)c1ccccc1-c1ccccc1)C1OC(=O)c2ccccc21 (stereo not given) | 12.3 | 28.9 | 37.4 | 34 | 59.5 | 77.9 | 86.5 | 33.8 | – | – | – | – | – | – | – | – | – | – | – | –
Nc1cc(F)ccc1CC(=O)O | > 100 | > 100 | > 100 | – | > 100 | – | > 100 | > 100 | > 100 | > 100 | – | – | – | – | – | – | – | – | – | –
CO/C=C/C(=O)c1cc2cnc3c(=N)cc(NC(=O)C(C)C)c([nH]1)c23 | 1.08 | 7.41 | 1.61 | 0.0456 | – | 0.746 | 0.862 | 0.258 | 0.817 | 0.295 | 0.148 | 0.12 | 0.0246 | 0.00796 | 0.0266 | 0.0183 | 0.0637 | 0.032 | 0.0901 | –
C=CC(=O)NCCSCCCOC1(C(=O)O)CC(O)C(NC(C)=O)C(C(O)C(O)CO)O1 (stereo not given) | > 100 | > 100 | > 100 | > 100 | – | > 100 | > 100 | > 100 | – | > 100 | – | – | – | – | – | – | – | – | – | –
CCN(CC)CC(C)(C)C(=O)/C=C/c1cccc(/C=C/C(=O)C(C)(C)CN(CC)CC)c1 | 3.89 | 2.98 | 1.04 | 1.68 | 0.965 | 1.41 | 2.66 | 2.35 | – | – | – | – | – | – | – | – | – | – | – | –
CC1=Nc2ccccc2NC(c2ccoc2)C1 (stereo not given) | > 100 | > 100 | > 100 | > 100 | > 100 | > 100 | > 100 | > 100 | – | > 100 | – | – | – | – | – | – | – | – | – | –
Nc1c(-c2cn(Cc3ccccc3)c3ccccc23)[n+]([O-])c2ccccc2[n+]1[O-] | > 100 | > 100 | > 100 | 43.1 | 68 | > 100 | 35.5 | > 100 | – | 42.6 | – | – | – | – | – | – | – | – | – | –
COc1cccc2ccc(C(=O)c3ccccc3)nc12 | – | > 100 | > 100 | – | > 100 | > 100 | – | > 100 | – | – | – | – | – | – | – | – | – | – | – | –
CC1=C(O)c2cn(C)cc2C(=O)C1=O | > 100 | > 100 | > 100 | > 100 | > 100 | > 100 | > 100 | > 100 | – | > 100 | – | – | – | – | – | – | – | – | – | –
C[n+]1c(/C=C/c2c[nH]c3ccccc23)ccc2ccccc21 | 35.1 | 59.1 | 21 | – | 34.9 | 37.1 | 25.2 | – | 25.8 | 30.1 | 11.3 | 18 | 5.68 | – | – | 9.74 | 7.07 | 12.8 | 12.2 | 14.6
